Where “and” joins values, the source holds several entries; their conditions need not be identical. Identical values can stand only once. Like-named read-outs stand apart in the source and are kept apart here.
Key:
[1] = gadolinium complexes; cited from earlier work
[2] = literature; cited from earlier work
[3] = Absorption and luminescence (excitation, molar absorption, lifetime, quantal throughput); assay type: physicochemical; conditions: for molar absorption coefficient: band at ˜36500 cm^−1; for ΦD2O (quantal throughput): in D2O; for ΦH2O (quantal throughput): in H2O; for τD2O (luminescence lifetime): in deuterized water; for τH2O (luminescence lifetime): in water; for emission quantal throughput F: relative to [Tb(dpa)3]^3−, buffer solution Tris 0.1M, 15% experimental error
From the text: The absorption spectra of bpatcn^3− and its complexes of Eu^III and Tb^III show an intense band at ˜36500 cm^−1 with a molar absorption coefficient of 9050 for Eu and of 9100 for Tb. These bands have been attributed to a combination of π-->π* and n-->π* centred transitions of the ligand.
FIGS. 3a and 3b show respectively the emission spectra of the solutions of the europium and terbium complexes at pH=7.4 (obtained after excitation at 273 nm) and the usual and typical transitions ^5D0-->^7FJ and ^5D4-->^7FJ (J=0-6) of the ions Eu^3+ and Tb^3+.
The emission quantal throughput of the complex of [Tb(bpatcn)(H2O)]
The long life time of the luminescence observed for the terbium complex in water (1.5 ms), excludes the presence of a de-energizing process including the energy return of the metal in its energized state towards the ligand.
Chem. Int. Ed. Engl., 1987, 26, 1266; G. Mathis, Clin. Chem., 1993, 39, 195

[4] = De-protonation constants (pKa) by potentiometric titration; assay type: physicochemical; conditions: 0.1 M KCl, 298 K
From the text: Both following equivalents protonate the carboxylate moieties associated with the pyridines (pKa2=2.3(2), pKa3=3.71(3).
The protonation curve and the structural data match a simultaneous partial protonation of the three nitrogens of the macrocycle as observed for the ligand H3nota, followed by the protonation of the carboxylate moieties. The protonation of the third amine and of the nitrogens of the pyridines takes place at lower pH and the related pKa has not been determined.

[5] = Stability constant of the Gd complex by direct titration of 1:1 metal:ligand; pGd; assay type: physicochemical; conditions: for Log βGdL (log KGdL): present work, 1:1 metal:H3bpatcn 5.10^−4 M, pH 2.5 to 8.5
From the text: (§1) The stability constants of the complexes of H3bpatcn of Gd^III and of […] have been calculated by direct titration of a mixture of 1:1 metal:H3bpatcn (5.10^−4 M) in a pH range between 2.5 and 8.5.
(§2) The titration data may be represented by the following equations:
Gd^3++bpatcn^3−⇄[Gd(bpatcn)] log KGdL=15.8(2);

[6] = Stability constant of the Ca complex by direct titration of 1:1 metal:ligand; pCa; assay type: physicochemical; conditions: for logβCaL (log KCaL): present work, 1:1 metal:H3bpatcn 5.10^−4 M, pH 2.5 to 8.5
From the text: as §1, §2
Ca^2++bpatcn^3−⇄[Ca(bpatcn)]^− log KCaL=8.18(7)

[7] = cited from earlier work; for Log βGdL (log KGdL): literature
[8] = cited from earlier work; for logβCaL: literature
[9] = pH 7.4, [M]total=1 μM, [bpatcn]total=10 μM
[10] = commercial contrast agent, comparison

O=C(O)CN1CCN(CC(=O)O)CCN(CC(=O)O)CCN(CC(=O)O)CC1 (Gd complex, metal not drawn) [dota, 1,4,7,10-tetraazacyclododecane-N,N′,N″,N′″-tetra-acetic (H4dota) acid]
zero-field spin electronic relaxation [1]: 650 ps

C1CNCCNCCN1 [1,4,7-triazacyclononane]
pKa (highest, first listed) [2]: 10.42
pKa (second listed) [2]: 6.82

O=C([O-])CN1CCN(Cc2cccc(C(=O)[O-])n2)CCN(Cc2cccc(C(=O)[O-])n2)CC1.[Eu+3] [Eu (bpatcn)]
ε [3]: 9050 M⁻¹ cm⁻¹
λexc [3]: 273 nm
molar absorption coefficient [3]: 9050 M⁻¹ cm⁻¹
ΦD2O (quantal throughput) [3]: 0.12
ΦH2O (quantal throughput) [3]: 0.05
τD2O (luminescence lifetime) [3]: 1.67 (4) ms
τH2O (luminescence lifetime) [3]: 0.542 (4) ms
emission quantal throughput F [3]: 5%

O=C(O)CN1CCN(Cc2cccc(C(=O)O)n2)CCN(Cc2cccc(C(=O)O)n2)CC1 [H3bpatcn]
pKa4 ([4]; macrocycle nitrogen): 5.42(3)
pKa5 ([4]; macrocycle nitrogen): 10.5(2)
pKa2 ([4]; picolinate carboxylate): 2.3(2)
pKa3 ([4]; picolinate carboxylate): 3.7(3) and 3.71(3)
pKa1 ([4]; protonation of the carboxylate moiety): 2.2(2)
increase in stability of the gadolinium complex (relative to nota complex) ([5]; due to two pyridyl nitrogen donors): 2.1 log units
pGd (−log [M]free) [5, 9]: 13.6
Log βGdL (log KGdL) [5]: 15.8(2)
pCa (−log [M]free) [6, 9]: 6.30
logβCaL (log KCaL) [6]: 8.18(7)
ε [3]: 7850 M⁻¹ cm⁻¹
λexc [3]: 272 nm

O=C(O)CN1CCN(CC(=O)O)CCN(CC(=O)O)CC1 [H3nota, 1,4,7-triazacyclononane-N,N′,NN″-triacetic (H3nota) acid]
pKa (highest, first listed) [2]: 11.3(1)
pKa (second listed) [2]: 5.6
pKa (third listed) [2]: 2.88(2)
Log βGdL (log KGdL) [7]: 13.7
logβCaL [8]: 8.92

O=C(O)CN(CC(=O)O)CC(=O)O [H3nta, nitrilotriethanoic acid]
pKa (highest, first listed) [2]: 9.75
pKa (second listed) [2]: 2.64
pKa (third listed) [2]: 1.57
Log βGdL (log KGdL) [7]: 11.4

O=C(O)c1cccc(CN(Cc2cccc(C(=O)O)n2)Cc2cccc(C(=O)O)n2)n1 [H3tpaa, α, α′, α″ nitrilotri(6-methyl-2-pyridinecarboxylic) acid]
pKa (highest, first listed) [2]: 4.11(6)
pKa (second listed) [2]: 3.3(1)
pKa (third listed) [2]: 2.5(2)
Log βGdL (log KGdL) [7]: 10.2(2)
logβCaL [8]: 8.5(2)

O=C(O)CN(CCN(CC(=O)O)Cc1cccc(C(=O)O)n1)Cc1cccc(C(=O)O)n1 [H4bpdea, N,N′-bis[(6-carboxypyridin-2-yl)methyl]-ethylene diamine-N,N′-diacetic (H4bpeda) acid]
pKa (fourth listed) [2]: 2.9(1)
pKa (highest, first listed) [2]: 8.5(1)
pKa (second listed) [2]: 5.2(2)
pKa (third listed) [2]: 3.5(1)
Log βGdL (log KGdL) [7]: 15.1(3)
logβCaL [8]: 9.4(1)

O=C(O)CN(CCN(CC(=O)O)CC(=O)O)CC(=O)O [H4edta]
pKa (fourth listed) [2]: 2.60
pKa (highest, first listed) [2]: 10.19
pKa (second listed) [2]: 6.13
pKa (third listed) [2]: 2.69
Log βGdL (log KGdL) [7]: 17.4
logβCaL [8]: 10.5

O=C(O)CN(CCN(CC(=O)O)Cc1ccccn1)Cc1ccccn1 [N,N′-bis(2-pyridinylmethyl)ethylenediamine-N,N′-diacetate]
contribution of the 2-pyridylmethyl to stability of the Gd^III complex ([7]; estimated): 2.6 log units

O=C([O-])CN1CCN(Cc2cccc(C(=O)[O-])n2)CCN(Cc2cccc(C(=O)[O-])n2)CC1.[Tb+3] [Tb (bpatcn)]
ε [3]: 9100 M⁻¹ cm⁻¹
λexc [3]: 273 nm
quantal throughput value Φ ([3]; as stated in text before the table): 48%
molar absorption coefficient [3]: 9100 M⁻¹ cm⁻¹
ΦD2O (quantal throughput) [3]: 0.48
ΦH2O (quantal throughput) [3]: 0.43
τD2O (luminescence lifetime) [3]: 2.46 (7) ms
τH2O (luminescence lifetime) [3]: 1.5 ms and 1.49 (2) ms
emission quantal throughput F [3]: 43%

O=C(O)CN1CCN(Cc2cccc(C(=O)[O-])n2)CCN(Cc2cccc(C(=O)[O-])n2)CC1.[Ca+2] [[Ca(bpatcn)]^−]
logβCaL (log KCaL) [6]: 8.18(7)

O=C([O-])CN1CCN(Cc2cccc(C(=O)[O-])n2)CCN(Cc2cccc(C(=O)[O-])n2)CC1.[Gd+3] [[Gd(bpatcn)]]
Log βGdL (log KGdL) [5]: 15.8(2)

CNC(=O)CN(CCN(CCN(CC(=O)[O-])CC(=O)NC)CC(=O)[O-])CC(=O)[O-].[Gd+3] [[Gd(dtpa-bma)(H2O)]^−]
pGd [7, 10]: 15.8
Log βGdL (log KGdL) [7]: 1.85
pCa [8, 10]: 6.39

O=C([O-])c1cccc(CN2CCN(Cc3cccc(C(=O)[O-])n3)CCN(Cc3cccc(C(=O)[O-])n3)CC2)n1.[Gd+3] [[Gd(tpatcn)]]
zero-field spin electronic relaxation [1]: approx. 1500 ps
